Measured values reported in patent US9708314B2, “Heterocyclic amide compound” (NISSAN CHEMICAL INDUSTRIES, LTD., priority 2013, dated 2017).

How the values were obtained:
Format in all cases: in vivo
[1] = tested on: Echinochloa oryzacola Vasing.; test: Test Example 2: herbicidal activity, application during weed generation in submerged conditions; conditions: Eighteenth Table; application herbicide amount 320 g/ha
Description: (§1) 5 Herbicidal ratio of 90% or more (almost completely withered) 4 Herbicidal ratio of 70% or more and less than 90% 3 Herbicidal ratio of 40% or more and less than 70% 2 Herbicidal ratio of 20% or more and less than 40% 1 Herbicidal ratio of 5% or more and less than 20% 0 Herbicidal ratio of 5% or less (almost no effect) [Test Example 2] Herbicidal Activity Test by Application During Weed Generation in Submerged Conditions After alluvial soil was placed into 1/10000 are of Wagner pot, water was poured and mixed to form a submerged condition having a water depth of 4 cm. Seeds of Echinochloa oryzacola Vasing., Scirpus juncoides, and Monochoria vaginalis were sowed in a mixed manner in the above pot and the pot was placed in the greenhouse of 25° C. to 30° C. to grow the plants. When Echinochloa oryzacola Vasing., Scirpus juncoides, and Monochoria vaginalis were grown to one leaf stage to two leaf stage, the emulsion agent containing the compound of the present invention prepared in accordance with Formulation Example 2 was diluted with water so as to be a predetermined herbicide amount and the diluted compound was applied to the surface of the water. Three weeks after the herbicide application, effects on each plant were investigated in accordance with the criteria of Test Example 1. A: Echinochloa oryzicola Vasing., B: Scirpus juncoides, C: Monochoria vaginalis, D: Leptochloa chinensis, E: Cyperus difformis, F: Digitaria ciliaris, G: Setaria viridis, H: Echinochloa crus-galli var. crus-galli, I: Avena fatua, J: Alopecurus myosuroides, K: Lolium multiflorum Lam., L: Apera spica-venti., M: Abutilon theophrasti, N: Amaranthus retroflexus, O: Chenopodium album, P: Stellaria media, Q: Galium spurium, R: Veronica persica, a: transplanted Oryza sativa, b: directly sowed Oryza sativa, c: Zea mays, d: Glycine max, e: Triticum aestivum, f: Beta vulgaris ssp. vulgaris, and g: Brassica campestris L. The application herbicide amount (g/ha) means an amount that a concentration is adjusted so that, when an application amount is converted into per hectare (1 ha), the herbicide is applied by the number of grams (g) of the described value.

Scirpus juncoides = test: as above; conditions: Eighteenth Table; application herbicide amount 320 g/ha
Description: as §1

Amaranthus retroflexus = test: Test Example 4: herbicidal effect by application to foliage (diluvial soil, plastic box); conditions: application to foliage, application herbicide amount 320 g/ha
Method in brief: (§2)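 Scores run from 0 (herbicidal ratio ≤5%) to 5 (≥90%, almost fully withered) and were assessed three weeks after foliar spraying. Seedlings had been raised for 14 days at 25-30° C in sterilized diluvial soil before treatment, with the emulsion diluted in water to the stated g/ha dose.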

Stellaria media = test: as above; conditions: application to foliage, application herbicide amount 320 g/ha
Method in brief: as §2

Monochoria vaginalis = test: Test Example 2: herbicidal activity, application during weed generation in submerged conditions; conditions: Eighteenth Table; application herbicide amount 320 g/ha
Description: as §1

Structure (SMILES) | A (Echinochloa oryzicola Vasing.) herbicidal ratio grade [1] | B (Scirpus juncoides) herbicidal ratio grade (Scirpus juncoides) | N (Amaranthus retroflexus) herbicidal effect (Amaranthus retroflexus) | P (Stellaria media) herbicidal effect (Stellaria media) | C (Monochoria vaginalis) herbicidal ratio grade (Monochoria vaginalis)
Cc1nnc(NC(=O)c2ccc(C(F)(F)F)n3c(CS(C)(=O)=O)nnc23)o1 [1-037] | 2 (Herbicidal ratio of 20% or more and less than 40%) | 2 (Herbicidal ratio of 20% or more and less than 40%) | 5 (Herbicidal ratio of 90% or more (almost completely withered)) | 4 (Herbicidal ratio of 70% or more and less than 90%) | –
Cc1nnc(NC(=O)c2ccc(C(F)(F)F)n3c(S(C)(=O)=O)nnc23)o1 [1-040] | 3 (Herbicidal ratio of 40% or more and less than 70%) | 2 (Herbicidal ratio of 20% or more and less than 40%) | 5 (Herbicidal ratio of 90% or more (almost completely withered)) | 5 (Herbicidal ratio of 90% or more (almost completely withered)) | –
CCS(=O)(=O)c1nnc2c(C(=O)Nc3nnc(C)o3)ccc(C(F)(F)F)n12 [1-041] | 2 (Herbicidal ratio of 20% or more and less than 40%) | 3 (Herbicidal ratio of 40% or more and less than 70%) | 5 (Herbicidal ratio of 90% or more (almost completely withered)) | 5 (Herbicidal ratio of 90% or more (almost completely withered)) | –
COc1cccc(-c2nnc3c(C(=O)Nc4nnc(C)o4)ccc(C(F)(F)F)n23)c1 [1-046] | 4 (Herbicidal ratio of 70% or more and less than 90%) | – | 5 (Herbicidal ratio of 90% or more (almost completely withered)) | 4 (Herbicidal ratio of 70% or more and less than 90%) | –
Cc1nnc(NC(=O)c2ccc(C(F)(F)F)n3c(SCC(C)C)nnc23)o1 [1-093] | 3 (Herbicidal ratio of 40% or more and less than 70%) | 3 (Herbicidal ratio of 40% or more and less than 70%) | – | – | 3 (Herbicidal ratio of 40% or more and less than 70%)
CCC(C)Sc1nnc2c(C(=O)Nc3nnc(C)o3)ccc(C(F)(F)F)n12 (stereo not drawn) [1-094] | 4 (Herbicidal ratio of 70% or more and less than 90%) | 3 (Herbicidal ratio of 40% or more and less than 70%) | – | – | 3 (Herbicidal ratio of 40% or more and less than 70%)
Cc1nnc(NC(=O)c2ccc(C(F)(F)F)n3c(SC(C)(C)C)nnc23)o1 [1-095] | 4 (Herbicidal ratio of 70% or more and less than 90%) | 5 (Herbicidal ratio of 90% or more (almost completely withered)) | – | – | 4 (Herbicidal ratio of 70% or more and less than 90%)
Cc1nnc(NC(=O)c2ccc(C(F)(F)F)n3c(N4CCOCC4)nnc23)o1 [1-096] | 4 (Herbicidal ratio of 70% or more and less than 90%) | 3 (Herbicidal ratio of 40% or more and less than 70%) | – | – | 4 (Herbicidal ratio of 70% or more and less than 90%)
CC(C)c1nnc2c(C(=O)Nc3nnc(C(F)(F)F)o3)ccc(C(F)(F)F)n12 [1-100] | 4 (Herbicidal ratio of 70% or more and less than 90%) | 3 (Herbicidal ratio of 40% or more and less than 70%) | – | – | 4 (Herbicidal ratio of 70% or more and less than 90%)
COc1cccc(Nc2nnc3c(C(=O)Nc4nnc(C)o4)ccc(C(F)(F)F)n23)n1 [1-102] | 1 (Herbicidal ratio of 5% or more and less than 20%) | 1 (Herbicidal ratio of 5% or more and less than 20%) | – | – | 1 (Herbicidal ratio of 5% or more and less than 20%)
